Experimental findings from patent publication US20250002435A1, “ARYLATED FENCHONE DERIVATIVES, COMPOSITIONS COMPRISING THEM, PROCESSES FOR THEIR PREPARATION AND USES THEREOF” (priority 2021, published 2025) are described below.

Where “and” joins values, the source holds several entries; their conditions need not be identical. Equal entries are not always repeated. Entries after “also recorded” stand apart in the source; their conditions may differ.

One assay concerns the target hCB2R (Homo sapiens (Human), UniProt P34972). The assay is described as follows: [35S]GTPγS binding assay, hCB2R CHO cell membranes. The settings on record: for functional activity at hCB2R (agonist / inverse agonist): [35S]GTPγS binding; for EC50: [35S]GTPγS binding to hCB2R, two independent experiments in triplicate; for E(max) %: percentage of HU-308 response at 1 μM. Type of assay: biochemical. The method, then:
Functional Characterization.
The method used for measuring agonist-stimulated binding of [^35S]GTPγS was based on a described protocol. The assays were carried out with GTPγS assay buffer (50 mM Tris HCl (pH 7.4), 0.2 mM EGTA, 9 mM MgCl2, 150 mM NaCl, 1 mg/ml BSA). Briefly, membranes (5 μg protein) were incubated in assay buffer containing 100 μM GDP, 0.05 nM [^35S]GTPγS, test compounds at various concentrations in siliconized glass tubes. Bound ligand was separated from free ligand by vacuum filtration. Nonspecific binding was determined using 10 μM GTPS. Basal binding was assayed in the absence of the ligand and in the presence of GDP.

In assay [1] the target is T1, CNR2 (Homo sapiens (Human), UniProt P34972). Kind of assay: cAMP Hunter agonist assay, CHO-K1 cells expressing CB2. Type of assay: cell-based. To be noted: for EC50: cells expressing CNR2; for agonist response CNR2: cells expressing CNR2, cAMP. How it is done: (§1) Cannabinoid receptors belong to G-protein-coupled receptors which may transduce intracellular agonist-antagonist responses regulating in part levels of cAMP within the cells. Fenchone derivates were assayed using Eurofins proprietary assays (i.e. CB1-Antagonist Catalog #86-0007P-2277AN; CB2-Antagonist Catalog ref. 86-0007P-2818AN; CB1-Agonist; Catalog #86-0007P-2277AG; CB2-Agonist-Catalog #86-0007P-2818AG).
(§2) Similarly, for agonist activity, cAMP Hunter™ Gs cell lines overexpress naturally Gs coupled, wild type GPCRs and are designed to detect increases in intracellular cAMP levels in response to agonist stimulation of the receptor. These cell lines are designed to be used in conjunction with the HitHunter® cAMP Assay Detection Kit. For both assays, human CB1 or CB2 receptors were stably transfected CHO-K1 cells and subjected to positive controls, known to activate the increase of cAMP for both receptors (Agonist control 20 μM Forskolin for CB1 and 25 μM Forskolin for CB2) or inhibit cAMP intracellular levels of CB1 ([…] CP55940) or CB2 ([…] CP55940). Cells were seeded in a total volume of 20 μL into white walled, 384-well microplates and incubated at 37° C. overnight. Prior to testing cell plating media was exchanged with 10 uL of Assay buffer (HBSS+10 mM HEPES). Five 5 μL of agonist (test sample, vehicle or positive control) were added to cells and incubated at 37° C. for 30 minutes. Final assay vehicle concentration was 1% and the results are expressed in relation to the control ligand.

For a further assay, the target named is CNR1 (Homo sapiens (Human), UniProt P21554). Kind of assay: cAMP Hunter agonist assay, CHO-K1 cells expressing CB1. The assay is classed as cell-based. How it is done: as §1
as §2, with “Five 5 μL of agonist (test sample, vehicle or positive control) were added to cells and incubated at 37° C. for 30 minutes. Final assay vehicle concentration was 1% and the results are expressed in relation to the control ligand.” left out

The target in assay [2] is T1, CNR2. Kind of assay: cAMP Hunter antagonist assay, CB2. The assay is classed as cell-based. To be noted: cAMP antagonist mode. How it is done:
as §1
Briefly, for antagonist activity, cAMP Hunter™ Gi cell lines overexpress naturally Gi coupled, wild type GPCRs and are designed to detect inhibition of intracellular cAMP production in response to agonist stimulation of the receptor. These cell lines are designed to be used in conjunction with the HitHunter® cAMP Assay Detection Kit.
Similarly, for agonist activity, cAMP Hunter™ Gs cell lines overexpress naturally Gs coupled, wild type GPCRs and are designed to detect increases in intracellular cAMP levels in response to agonist stimulation of the receptor. These cell lines are designed to be used in conjunction with the HitHunter® cAMP Assay Detection Kit. […]

For assay [3], the system named is Human OA derived articular chondrocytes. Kind of assay: cAMP-Glo EC50 in chondrocyte cell cultures. Type of assay: cell-based. The settings on record: 45 min treatment. The source says: All human cell cultures were obtained from total knee replacement surgery (TKA) in accordance with Hadassah Medical Center Institutional Review Board approval and in accordance with the Helsinki Declaration ethical principles for medical research involving human subjects (Study #0488-09). Following written informed consent, articular cartilage was obtained from the knee joints of OA patients undergoing total knee arthroplasty (n=51, mean age 71 years, mean body mass index 31 kg/m2, Kellgren and Lawrence score ranging 3-4). Articular cartilage tissue was dissected, chondrocytes isolated and plated as described by Bar Oz et al., (10). Isolated chondrocytes were passaged to passage 3, and plated in 96 well plates with DMEM media containing 10% FCS, 1% Penicillin-streptomycin, 1% Amphotericin B. Cultures were maintained in standard incubation conditions (37° C., 5% CO2) until confluence. All reagents for cell culture were purchased for Biological Industries (Israel, Beit-Haemek Kibutz), unless otherwise indicated. […] Luminescence was measured and a standard curve was simultaneously run per plate. […] Using this ΔRLU value and the linear equation generated from the standard curve, the cAMP concentration was calculated. […]

For another assay, the system named is TNFα. The assay is described as follows: serum TNFα ELISA 24 h after zymosan injection. Type of assay: in vivo, mouse. To be noted: 25 mg/kg, serum 24 h after zymosan. How it is done:
Blood was collected 24 h after zymosan injection, and the sera were assayed for TNFα using a mouse TNFα ELISA kit (R&D Systems, Minneapolis, MN, USA), according to the manufacturer's instructions.
A general note: An ELISA detects its analyte on a solid surface through an enzyme-linked reagent.

hCB2R, sequence (P34972 whole entry): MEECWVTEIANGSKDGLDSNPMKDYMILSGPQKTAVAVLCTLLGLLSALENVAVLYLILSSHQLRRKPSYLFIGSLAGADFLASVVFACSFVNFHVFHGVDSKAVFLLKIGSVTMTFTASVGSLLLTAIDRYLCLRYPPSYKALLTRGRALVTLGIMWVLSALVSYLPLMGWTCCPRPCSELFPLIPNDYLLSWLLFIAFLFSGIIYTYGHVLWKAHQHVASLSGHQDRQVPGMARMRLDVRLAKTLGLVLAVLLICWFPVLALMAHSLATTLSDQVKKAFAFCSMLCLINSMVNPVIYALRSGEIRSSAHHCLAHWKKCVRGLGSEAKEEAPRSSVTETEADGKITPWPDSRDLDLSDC

As a reminder, the EC50 is the midpoint of the concentration-response curve. Read a high EC50 as lower potency in that assay. For the molecule `CCCCCc1cc(OC)c(C2(O)C3(C)CCC(C3)C2(C)C)c(OC)c1` (single isomer, unassigned) [Compound 1b, 2-(2,6′-dimethoxy-4′-pentylphenyl)-1,3,3-trimethylbicyclo[2.2.1]heptan-2-ol], at hCB2R, the “functional activity at hCB2R (agonist / inverse agonist)” value is reported as “agonist”, the EC50 was found to be 11.6 nM and the “E(max) %” value worked out at 65.1%. Besides, on CNR2 [1], a half-maximal effect (EC50) was put at 50 nM and the “agonist response CNR2” value was “noticeable response”. Besides, the “agonist response CNR1” value at CNR1 was “no response”. For the same molecule, the “antagonistic effect CNR2” value at CNR2 [2] was “no detectable antagonistic effect”. Moreover, the “EC50 in chondrocytes compared with HU308” value in assay [3] is given as “low EC50; also recorded: superior EC50 over HU308”.

Consider `CCCCCCC(C)(C)c1cc(OC)c([C@]2(O)C3(C)CCC(C3)C2(C)C)c(OC)c1` (some centres unmarked) [Compound 1d, 2-(2,6′-dimethoxy-4′-(2″-methyloctan-2″-yl)phenyl)-1,3,3-trimethyl-bicyclo[2.2.1]heptan-2-ol], for which, at hCB2R, the “functional activity at hCB2R (agonist / inverse agonist)” value was “agonist”; the EC50 was 2.6 nM and 2.59 nM; the “E(max) %” value stood at 89.63%. Moreover, at CNR2 [1], the 50% effective concentration (EC50) worked out at 10 nM and the “agonist response CNR2” value is “noticeable response”. For the same molecule, the “agonist response CNR1” value on CNR1 was “no response”. Also, at CNR2 [2], the “antagonistic effect CNR2” value is given as “no detectable antagonistic effect”. For the same molecule, the “EC50 in chondrocytes compared with HU308” value in assay [3] is listed as “low EC50; also recorded: superior EC50 over HU308”. Also, the “levels of TNF-α” value with TNFα is recorded as “reduced significantly”.
